PubChem BioAssay (NCI)
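Method: 48-hour compound exposure of cells in 96-well plates, five concentrations, linear interpolation of endpoints. TGI: total growth inhibition.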

How the values were obtained:
Test in all cases: NCI-60 cell line screen, 48 h
[1] = system: HOP-62 NSCLC
[2] = system: OVCAR-4 ovarian
[3] = system: BT-549 breast
[4] = system: MOLT-4 leukemia
[5] = system: MDA-N
[6] = system: UACC-62 melanoma
[7] = system: PC-3 prostate
[8] = system: HCT-116 colon
[9] = system: M14 melanoma
[10] = system: SNB-75 CNS
[11] = system: SF-295 CNS
[12] = system: OVCAR-5 ovarian
[13] = system: K-562 leukemia
[14] = system: KM12 colon

| SMILES | TGI [1] | TGI [2] | TGI [3] | TGI [4] | TGI [5] | TGI [6] | TGI [7] | TGI [8] | TGI [9] | TGI [10] | TGI [11] | TGI [12] | TGI [13] | TGI [14] |
| --- | --- | --- | --- | --- | --- | --- | --- | --- | --- | --- | --- | --- | --- | --- |
| O=[N+]([O-])c1ccc(-c2nc3ccc(Cl)cc3[nH]2)cc1 | > 100 µM | > 100 µM | > 100 µM | > 100 µM | > 100 µM | > 100 µM | > 100 µM | > 100 µM | > 100 µM | > 100 µM | > 100 µM |  |  |  |
| CCOC(=O)NNC(=O)NCc1cccc(CNC(=O)NNC(=O)OCC)c1 |  | > 100 µM | > 100 µM | > 100 µM | > 100 µM | > 100 µM | > 100 µM | > 100 µM | > 100 µM | > 100 µM |  | > 100 µM | > 100 µM | > 100 µM |
| CC(=O)C1=CN=C2C(=O)N(c3ccccc3)N(C)C12C (stereo not given) |  | > 100 µM | > 100 µM | > 100 µM | > 100 µM | > 100 µM | > 100 µM | > 100 µM | > 100 µM | > 100 µM | > 100 µM | > 100 µM | > 100 µM | 46.8 µM |
| COC(=O)C(CCSC)NC(=O)CNC(=O)CSc1nnc(COc2ccc(Cl)cc2)n1-c1ccccc1 (stereo not given) | 34.9 µM | 50.1 µM | 30.6 µM | > 100 µM | 32.7 µM | 30.3 µM | 30.2 µM | 30.5 µM | 33.6 µM | 36.3 µM |  | 34.7 µM | > 100 µM | 44.6 µM |
| CC1(C)CC[C@]2(C)CC[C@]3(C)C(=CC[C@@H]4[C@@]5(C)CCC(=O)C(C)(C)[C@@H]5[C@H](O)C[C@]43C)[C@@H]2C1 | 31.5 µM | 34.7 µM | 35.4 µM | > 100 µM | 29.7 µM | 29.4 µM | 30.9 µM | 30.5 µM | 40.7 µM |  | 32.3 µM | 30.7 µM |  | 37.9 µM |
| O=c1[nH]c(=S)nc2nc3c4ccc[nH]c4c4ccccc4c3nc12 | > 100 µM | > 100 µM | > 100 µM | > 100 µM | > 100 µM | > 100 µM | > 100 µM | > 100 µM | > 100 µM | > 100 µM | > 100 µM | > 100 µM |  | > 100 µM |
| CCOC(=O)CNC(=O)C(CSC(=O)N(O)c1ccc(Cl)cc1)NC(=O)CCC(N)C(=O)OCC (stereo not given) | > 50 µM |  | > 50 µM | > 50 µM | > 50 µM | > 50 µM | > 50 µM | > 50 µM | > 50 µM |  | > 50 µM | > 50 µM | > 50 µM | > 50 µM |
| COc1ccc(N2C(=O)/C(=C\c3cc(OC)c(OC)c(OC)c3)SC2c2ccccc2)cc1 (stereo not given) | > 100 µM | > 100 µM | > 100 µM | > 100 µM | > 100 µM | > 100 µM |  | > 100 µM | > 100 µM |  | > 100 µM | > 100 µM | > 100 µM | > 100 µM |
| CCOC(=O)C1(F)S(=O)(=O)OCCOS1(=O)=O | > 100 µM | > 100 µM | > 100 µM | > 100 µM | > 100 µM | > 100 µM | > 100 µM | > 100 µM | > 100 µM | > 100 µM | > 100 µM | > 100 µM |  | > 100 µM |
| Cc1ccc2nc(N/N=C/c3sccc3C)cc(C)c2c1 | > 100 µM | > 100 µM | > 100 µM | > 100 µM | > 100 µM | > 100 µM | > 100 µM | > 100 µM | > 100 µM | > 100 µM |  | > 100 µM | > 100 µM | > 100 µM |
| CCc1c(C)c(C#N)c(=S)n(C2OC(COC(C)=O)C(OC(C)=O)C(OC(C)=O)C2OC(C)=O)c1-c1ccccc1 (stereo not given) | > 31.6 µM | > 31.6 µM | > 100 µM | > 31.6 µM | > 31.6 µM |  |  | > 31.6 µM | > 31.6 µM |  | 27 µM | > 31.6 µM | 47.2 µM | > 31.6 µM |
| COc1cc(O)c2c(=O)c(O)c(-c3ccc(O)c(OC)c3)oc2c1 |  |  | > 100 µM | > 25 µM | > 100 µM |  | > 100 µM | > 100 µM | > 100 µM | > 20.5 µM | > 100 µM | > 100 µM | 10.5 µM | > 100 µM |
| CC(C)=CCN1CC(C)C(=O)Nc2ccccc21 (stereo not given) | > 100 µM | > 100 µM | > 100 µM | > 100 µM | > 100 µM |  | > 100 µM | > 100 µM | > 100 µM |  | > 100 µM | > 100 µM | > 100 µM | > 100 µM |
| O=C1C(Cl)C2(CC(/C=C/c3ccccc3)=NN2c2cccc(S(=O)(=O)O)c2)N1c1nc2ccccc2s1 (stereo not given) |  | 31.9 µM | 28.5 µM | 42.2 µM | 46 µM | 29.8 µM | 34.4 µM | 56.1 µM | 36 µM | 30.3 µM |  | 35.5 µM | 54.3 µM | 30.9 µM |
